In ChEMBL document CHEMBL5647694, “Novel orally bioavailable EZH1/2 dual inhibitors with greater antitumor efficacy than an EZH2 selective inhibitor” (Cancer Sci, 2017):
Active and inactive are the calls of the source. The rule behind the calls is not given here.

Key:
[1] = Toxicity in Crl:CD Sprague-Dawley rat assessed as MCHC level in blood at 100 mg/kg, po administered daily for 14 days (reference value: 32.7 +/-0.05%); assay type: organism-based; details: in vivo, 336 h, time 14 day
[2] = Toxicity in Crl:CD Sprague-Dawley rat assessed as mean corpuscular volume in blood at 100 mg/kg, po administered daily for 14 days (reference value: 61.5 +/-1.92 fL); assay type: organism-based; details: in vivo, 336 h, time 14 day
Mus musculus = experiment: In vivo inhibition of EZH1/2 in CB17/Icr-Prkdcscid/CrlCrlj mouse xenografted with human KARPAS-422 cells assessed as decrease in H3K27me3 level in tumor at 3.1 to 50 mg/kg, po BID for 14 days and measured 1 day after cessation of drug dosing; assay type: functional, organism-based; details: dose 3.1-50 mg/kg, time 14.0 day
[3] = Toxicity in Crl:CD Sprague-Dawley rat assessed as calcium level in blood at 100 mg/kg, po administered daily for 14 days (reference value: 10.1 +/-0.096 mg/dL); assay type: organism-based; details: in vivo, 336 h, time 14 day
[4] = biological target: Histone-arginine methyltransferase CARM1 (Homo sapiens, UniProt Q86X55); experiment: Inhibition of human PRMT4 using Histone H3 and [3H]SAM as substrate incubated for 30 mins to 1 hr by HotSpot kinase assay
TOV21G = experiment: Antitumor activity against human TOV-21G cells assessed as cell growth inhibition treated for 10 to 15 days; assay type: functional; details: time 10-15 day
A704 = experiment: Antitumor activity against human A704 cells assessed as cell growth inhibition treated for 10 to 15 days; assay type: functional; details: time 10-15 day
[5] = Antitumor activity against human RDES cells assessed as cell growth inhibition treated for 10 to 15 days; assay type: functional; details: RD-ES, time 10-15 day
[6] = Antitumor activity against human OVISE cells assessed as cell growth inhibition treated for 10 to 15 days; assay type: functional; details: time 10-15 day
[7] = biological target: Histone-lysine N-methyltransferase EHMT2 (Homo sapiens, UniProt Q96KQ7); experiment: Inhibition of human G9a using Histone H3 (1-21 residues) and [3H]SAM as substrate incubated for 30 mins to 1 hr by HotSpot kinase assay
[8] = biological target: Ephrin type-B receptor 2 (Homo sapiens) (UniProt P29323); experiment: Inhibition of N-terminal GST-fused human EPHB2 cytoplasmic domain (581 to 987 residues) expressed in baculovirus-infected Sf21 cells using Blk/Lyntide as substrate at 1 uM in presence of ATP by Mobility shift assay
Rec1 = experiment: Antitumor activity against human REC1 cells assessed as cell growth inhibition treated for 10 to 15 days; assay type: functional; details: time 10-15 day
MDA-MB-231 = experiment: Antitumor activity against human MDA-MB-231 cells assessed as cell growth inhibition treated for 10 to 15 days; assay type: functional; details: time 10-15 day
[9] = Antitumor activity against human MINO cells assessed as cell growth inhibition treated for 10 to 15 days; assay type: functional; details: time 10-15 day
[10] = biological target: Histone-lysine N-methyltransferase SETD7 (Homo sapiens, UniProt Q8WTS6); experiment: Inhibition of human SET7/9 using Core Histone and [3H]SAM as substrate incubated for 30 mins to 1 hr by HotSpot kinase assay
Histone-lysine N-methyltransferase SETD7, sequence (Q8WTS6 whole entry): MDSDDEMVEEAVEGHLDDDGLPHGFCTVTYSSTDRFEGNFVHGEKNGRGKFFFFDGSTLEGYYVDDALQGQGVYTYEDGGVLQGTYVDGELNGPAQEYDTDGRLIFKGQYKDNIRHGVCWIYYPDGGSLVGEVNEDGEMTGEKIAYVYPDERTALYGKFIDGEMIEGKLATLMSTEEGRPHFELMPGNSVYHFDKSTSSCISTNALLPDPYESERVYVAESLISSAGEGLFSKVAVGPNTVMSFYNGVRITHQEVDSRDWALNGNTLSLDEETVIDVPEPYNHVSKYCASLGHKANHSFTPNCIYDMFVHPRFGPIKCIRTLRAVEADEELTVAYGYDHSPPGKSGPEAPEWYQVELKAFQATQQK

ECC10 = experiment: Antitumor activity against human ECC10 cells assessed as cell growth inhibition treated for 10 to 15 days; assay type: functional; details: time 10-15 day
SNU-16 = experiment: Antitumor activity against human SNU-16 cells assessed as cell growth inhibition treated for 10 to 15 days; assay type: functional; details: time 10-15 day
SU-DHL-6 = experiment: Antitumor activity against human SU-DHL-6 cells assessed as cell growth inhibition treated for 10 to 15 days; assay type: functional; details: time 10-15 day
[11] = biological target: Histone-lysine N-methyltransferase PRDM9 (Homo sapiens, UniProt Q9NQV7); experiment: Inhibition of human PRDM9 using Histone H3 and [3H]SAM as substrate incubated for 30 mins to 1 hr by HotSpot kinase assay
[12] = biological target: Histone-lysine N-methyltransferase NSD2 (Homo sapiens, UniProt O96028, E1099K); experiment: Inhibition of human NSD2 E1099K mutant using Nucleosomes and [3H]SAM as substrate incubated for 30 mins to 1 hr by HotSpot kinase assay
Ramos = experiment: Antitumor activity against human Ramos cells assessed as cell growth inhibition treated for 10 to 15 days; assay type: functional; details: time 10-15 day
NCI-H2081 = experiment: Antitumor activity against human NCI-H2081 cells assessed as cell growth inhibition treated for 10 to 15 days; assay type: functional; details: time 10-15 day
MV4-11 = experiment: Antitumor activity against human MV4-11 cells assessed as cell growth inhibition treated for 10 to 15 days; assay type: functional; details: time 10-15 day
Kasumi 1 = experiment: Antitumor activity against human Kasumi 1 cells assessed as cell growth inhibition treated for 10 to 15 days; assay type: functional; details: time 10-15 day
SK-N-MC = experiment: Antitumor activity against human SK-N-MC cells assessed as cell growth inhibition treated for 10 to 15 days; assay type: functional; details: time 10-15 day
[13] = Antitumor activity against human CMK-86 cells assessed as cell growth inhibition treated for 10 to 15 days; assay type: functional; details: time 10-15 day
[14] = biological target: Protein arginine N-methyltransferase 6 (Homo sapiens, UniProt Q96LA8); experiment: Inhibition of human PRMT6 using Histone H3 and [3H]SAM as substrate incubated for 30 mins to 1 hr by HotSpot kinase assay
Protein arginine N-methyltransferase 6, sequence (Q96LA8 whole entry): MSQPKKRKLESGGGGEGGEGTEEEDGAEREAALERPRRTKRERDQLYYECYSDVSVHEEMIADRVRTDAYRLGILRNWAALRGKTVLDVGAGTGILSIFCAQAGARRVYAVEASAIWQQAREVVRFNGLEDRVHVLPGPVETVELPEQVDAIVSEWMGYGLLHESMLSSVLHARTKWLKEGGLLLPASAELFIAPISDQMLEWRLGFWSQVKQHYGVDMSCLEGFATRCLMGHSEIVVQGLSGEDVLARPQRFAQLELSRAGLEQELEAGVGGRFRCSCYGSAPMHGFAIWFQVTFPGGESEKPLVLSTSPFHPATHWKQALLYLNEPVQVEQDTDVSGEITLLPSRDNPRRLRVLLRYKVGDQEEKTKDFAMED

[15] = biological target: Histone-lysine N-methyltransferase 2A (Homo sapiens, UniProt Q03164); experiment: Inhibition of human MLL1 using Nucleosomes and [3H]SAM as substrate incubated for 30 mins to 1 hr by HotSpot kinase assay
Histone-lysine N-methyltransferase 2A, sequence (Q03164 1-2718 limits assumed): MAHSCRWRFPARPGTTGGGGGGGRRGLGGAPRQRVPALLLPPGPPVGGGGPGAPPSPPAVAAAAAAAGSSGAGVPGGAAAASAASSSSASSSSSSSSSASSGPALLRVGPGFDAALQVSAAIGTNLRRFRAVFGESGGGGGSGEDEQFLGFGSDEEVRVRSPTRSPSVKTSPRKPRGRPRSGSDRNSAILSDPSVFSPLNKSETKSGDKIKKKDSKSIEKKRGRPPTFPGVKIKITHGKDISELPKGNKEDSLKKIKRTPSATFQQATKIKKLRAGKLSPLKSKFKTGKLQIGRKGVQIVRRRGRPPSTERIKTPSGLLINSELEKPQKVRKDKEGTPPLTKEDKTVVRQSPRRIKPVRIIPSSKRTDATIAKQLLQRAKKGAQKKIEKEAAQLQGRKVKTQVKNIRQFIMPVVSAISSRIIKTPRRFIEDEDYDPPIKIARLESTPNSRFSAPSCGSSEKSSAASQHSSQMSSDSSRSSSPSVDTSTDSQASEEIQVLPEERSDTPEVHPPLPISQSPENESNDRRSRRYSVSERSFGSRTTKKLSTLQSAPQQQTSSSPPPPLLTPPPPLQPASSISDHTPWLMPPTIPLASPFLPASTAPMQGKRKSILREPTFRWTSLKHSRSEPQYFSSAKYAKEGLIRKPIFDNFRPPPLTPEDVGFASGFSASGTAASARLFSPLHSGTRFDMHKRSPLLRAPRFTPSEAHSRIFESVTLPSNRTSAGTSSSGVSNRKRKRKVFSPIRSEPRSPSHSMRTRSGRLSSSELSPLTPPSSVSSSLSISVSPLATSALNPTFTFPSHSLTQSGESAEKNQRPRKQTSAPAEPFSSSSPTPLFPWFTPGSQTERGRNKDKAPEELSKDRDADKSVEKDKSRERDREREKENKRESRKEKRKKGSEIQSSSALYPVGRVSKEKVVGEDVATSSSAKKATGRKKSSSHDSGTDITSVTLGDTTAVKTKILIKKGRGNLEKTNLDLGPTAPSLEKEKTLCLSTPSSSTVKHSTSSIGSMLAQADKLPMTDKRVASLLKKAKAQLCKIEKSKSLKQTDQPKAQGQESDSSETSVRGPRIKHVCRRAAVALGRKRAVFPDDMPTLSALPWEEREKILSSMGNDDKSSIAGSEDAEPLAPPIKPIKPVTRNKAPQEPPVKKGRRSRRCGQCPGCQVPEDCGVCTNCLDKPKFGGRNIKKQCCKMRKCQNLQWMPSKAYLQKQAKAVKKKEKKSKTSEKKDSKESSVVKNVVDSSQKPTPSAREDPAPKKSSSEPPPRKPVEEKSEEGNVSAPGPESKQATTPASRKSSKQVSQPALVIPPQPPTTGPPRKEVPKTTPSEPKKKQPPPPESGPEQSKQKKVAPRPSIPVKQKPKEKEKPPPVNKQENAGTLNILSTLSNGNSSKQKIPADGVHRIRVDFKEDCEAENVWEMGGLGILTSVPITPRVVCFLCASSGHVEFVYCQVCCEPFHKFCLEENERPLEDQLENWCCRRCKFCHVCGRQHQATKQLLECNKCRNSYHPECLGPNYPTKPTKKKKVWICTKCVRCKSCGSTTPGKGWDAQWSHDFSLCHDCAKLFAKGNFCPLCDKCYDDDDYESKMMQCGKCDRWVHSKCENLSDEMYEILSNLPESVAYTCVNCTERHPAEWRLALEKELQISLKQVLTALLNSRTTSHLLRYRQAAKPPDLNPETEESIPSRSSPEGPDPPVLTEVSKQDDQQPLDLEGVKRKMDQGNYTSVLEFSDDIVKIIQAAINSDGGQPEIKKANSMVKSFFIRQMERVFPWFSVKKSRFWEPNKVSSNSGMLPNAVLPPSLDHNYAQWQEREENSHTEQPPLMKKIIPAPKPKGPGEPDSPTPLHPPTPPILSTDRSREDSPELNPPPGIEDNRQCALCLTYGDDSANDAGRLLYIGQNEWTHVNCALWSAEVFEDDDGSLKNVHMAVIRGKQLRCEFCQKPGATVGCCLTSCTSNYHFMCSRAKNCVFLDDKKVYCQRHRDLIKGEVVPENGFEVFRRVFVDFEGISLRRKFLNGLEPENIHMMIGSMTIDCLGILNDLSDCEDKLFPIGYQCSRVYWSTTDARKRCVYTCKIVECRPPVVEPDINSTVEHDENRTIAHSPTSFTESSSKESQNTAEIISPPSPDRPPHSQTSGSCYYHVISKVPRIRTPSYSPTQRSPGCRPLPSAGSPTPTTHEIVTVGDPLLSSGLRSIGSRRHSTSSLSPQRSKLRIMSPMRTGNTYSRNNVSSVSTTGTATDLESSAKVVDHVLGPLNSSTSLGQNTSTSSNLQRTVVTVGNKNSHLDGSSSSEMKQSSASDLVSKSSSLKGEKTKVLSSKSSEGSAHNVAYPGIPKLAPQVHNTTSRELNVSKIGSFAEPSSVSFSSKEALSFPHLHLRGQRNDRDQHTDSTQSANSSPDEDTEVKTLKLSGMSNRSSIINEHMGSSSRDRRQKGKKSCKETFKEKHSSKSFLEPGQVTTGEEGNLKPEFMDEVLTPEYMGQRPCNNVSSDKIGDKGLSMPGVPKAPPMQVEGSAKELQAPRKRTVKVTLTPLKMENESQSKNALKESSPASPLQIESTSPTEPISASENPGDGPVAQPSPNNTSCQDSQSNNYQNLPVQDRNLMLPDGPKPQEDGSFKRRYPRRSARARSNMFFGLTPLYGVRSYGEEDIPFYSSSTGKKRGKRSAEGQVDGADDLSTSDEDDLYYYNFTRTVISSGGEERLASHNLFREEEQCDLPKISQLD
Histone-lysine N-methyltransferase 2A, sequence (Q03164 2719-3969 limits assumed): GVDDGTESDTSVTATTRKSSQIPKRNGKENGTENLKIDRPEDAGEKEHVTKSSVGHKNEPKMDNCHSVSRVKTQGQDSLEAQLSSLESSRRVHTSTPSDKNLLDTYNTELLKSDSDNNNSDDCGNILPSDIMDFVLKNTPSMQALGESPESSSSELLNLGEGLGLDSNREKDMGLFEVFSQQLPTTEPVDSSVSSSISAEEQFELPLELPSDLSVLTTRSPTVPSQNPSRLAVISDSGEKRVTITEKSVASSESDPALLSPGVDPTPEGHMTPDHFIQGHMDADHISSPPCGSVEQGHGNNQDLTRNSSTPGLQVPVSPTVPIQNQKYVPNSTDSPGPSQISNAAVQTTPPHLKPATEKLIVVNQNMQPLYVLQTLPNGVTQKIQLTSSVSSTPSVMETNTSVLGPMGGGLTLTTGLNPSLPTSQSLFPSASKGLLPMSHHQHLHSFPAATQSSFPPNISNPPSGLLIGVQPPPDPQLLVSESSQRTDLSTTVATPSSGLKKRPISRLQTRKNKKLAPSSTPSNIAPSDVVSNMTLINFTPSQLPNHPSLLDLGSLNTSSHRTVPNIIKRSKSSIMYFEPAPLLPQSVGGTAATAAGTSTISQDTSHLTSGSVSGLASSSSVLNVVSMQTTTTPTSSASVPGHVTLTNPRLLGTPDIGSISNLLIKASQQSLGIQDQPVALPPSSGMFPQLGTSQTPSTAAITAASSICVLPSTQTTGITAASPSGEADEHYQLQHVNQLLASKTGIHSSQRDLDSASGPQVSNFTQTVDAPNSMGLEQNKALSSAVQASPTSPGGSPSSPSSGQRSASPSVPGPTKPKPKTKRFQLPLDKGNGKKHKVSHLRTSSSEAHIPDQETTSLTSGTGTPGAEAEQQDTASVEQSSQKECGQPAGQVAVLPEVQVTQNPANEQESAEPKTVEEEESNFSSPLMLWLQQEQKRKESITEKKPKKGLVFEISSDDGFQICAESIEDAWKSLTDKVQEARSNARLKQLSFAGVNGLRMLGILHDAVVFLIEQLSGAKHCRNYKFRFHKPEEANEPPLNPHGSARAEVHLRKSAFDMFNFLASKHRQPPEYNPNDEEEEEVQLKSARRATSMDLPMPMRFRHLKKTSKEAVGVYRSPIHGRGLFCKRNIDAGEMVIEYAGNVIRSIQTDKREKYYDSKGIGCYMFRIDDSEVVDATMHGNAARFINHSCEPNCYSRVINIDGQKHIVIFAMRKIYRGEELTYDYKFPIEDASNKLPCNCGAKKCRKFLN

NAMALVA = experiment: Antitumor activity against human NAMALVA cells assessed as cell growth inhibition treated for 10 to 15 days; assay type: functional; details: time 10-15 day
G-401 = experiment: Antitumor activity against human G-401 cells assessed as cell growth inhibition treated for 10 to 15 days; assay type: functional; details: time 10-15 day
NB-4 = experiment: Antitumor activity against human NB-4 cells assessed as cell growth inhibition treated for 10 to 15 days; assay type: functional; details: time 10-15 day
[16] = Antitumor activity against human COV504 cells assessed as cell growth inhibition treated for 10 to 15 days; assay type: functional; details: time 10-15 day
MOLM-14 = experiment: Antitumor activity against human MOLM-14 cells assessed as cell growth inhibition treated for 10 to 15 days; assay type: functional; details: time 10-15 day
NCI-H1436 = experiment: Antitumor activity against human NCI-H1436 cells assessed as cell growth inhibition treated for 10 to 15 days; assay type: functional; details: time 10-15 day
SK-ES1 = experiment: Antitumor activity against human SK-ES1 cells assessed as cell growth inhibition treated for 10 to 15 days; assay type: functional; details: time 10-15 day
HCC1187 = experiment: Antitumor activity against human HCC1187 cells assessed as cell growth inhibition treated for 10 to 15 days; assay type: functional; details: time 10-15 day
[17] = Antitumor activity against human OVMANA cells assessed as cell growth inhibition treated for 10 to 15 days; assay type: functional; details: time 10-15 day
HCC1419 = experiment: Antitumor activity against human HCC1419 cells assessed as cell growth inhibition treated for 10 to 15 days; assay type: functional; details: time 10-15 day
LS180 = experiment: Antitumor activity against human LS180 cells assessed as cell growth inhibition treated for 10 to 15 days; assay type: functional; details: time 10-15 day
[18] = biological target: Ephrin type-A receptor 2 (Homo sapiens) (UniProt P29317); experiment: Inhibition of N-terminal GST-fused human EPHA2 cytoplasmic domain (572 to 976 residues) expressed in baculovirus-infected Sf21 cells using Blk/Lyntide as substrate at 1 uM in presence of ATP by Mobility shift assay

SMILES: Cc1cc(C)c(CNC(=O)c2cc(Br)c3c(c2C)O[C@@](C)([C@H]2CC[C@H](N(C)C)CC2)O3)c(=O)[nH]1
- Activity [1]: 32.5%
- Activity [2]: 60.9 fL
- inhibition (Mus musculus): Active
- Activity [3]: 9.88 mg/dL

SMILES: Cc1cc(C)c(CNC(=O)c2cc(Cl)c3c(c2C)O[C@@](C)([C@H]2CC[C@H](N(C)C)CC2)O3)c(=O)[nH]1 [VALEMETOSTAT]
- IC50 [4]: 100 µM
- GI50 (TOV21G): 0.0555 µM
- GI50 (A704): > 1 µM
- GI50 [5]: > 1 µM
- GI50 [6]: > 1 µM
- IC50 [7]: 100 µM
- inhibition [8]: -6.2%
- GI50 (Rec1): 0.48 µM
- GI50 (MDA-MB-231): > 1 µM
- GI50 [9]: 0.0207 µM
- IC50 [10]: 100 µM
- GI50 (ECC10): 0.0845 µM
- GI50 (SNU-16): > 1 µM
- GI50 (SU-DHL-6): 0.00068 µM
- IC50 [11]: 100 µM
- IC50 [12]: 100 µM
- GI50 (Ramos): > 1 µM
- GI50 (NCI-H2081): 0.982 µM
- GI50 (MV4-11): 0.00319 µM
- GI50 (Kasumi 1): 0.07 µM
- GI50 (SK-N-MC): > 1 µM
- GI50 [13]: 0.444 µM
- IC50 [14]: 100 µM
- IC50 [15]: 100 µM
- GI50 (NAMALVA): > 1 µM
- GI50 (G-401): 0.0177 µM
- GI50 (NB-4): > 1 µM
- GI50 [16]: 0.317 µM
- GI50 (MOLM-14): 0.07 µM
- GI50 (NCI-H1436): 0.216 µM
- GI50 (SK-ES1): > 1 µM
- GI50 (HCC1187): > 1 µM
- GI50 [17]: > 1 µM
- GI50 (HCC1419): > 1 µM
- GI50 (LS180): 0.0955 µM
- inhibition [18]: -6.7%
